# Results as given in patent publication US20260158194A1, “DRUG COATED BALLOON” (ARTERIUS LIMITED, priority 2021, published 2026).
# What was measured:
# [1] = Simulated tracking and deployment (ASTM F3320-18) into hydrogel mock-vessel (Examples 14-17); format: physicochemical; conditions: single drug
# Method: In this example, a hydrogel was used to mimic the arterial tissue wall to assess the drug release profile and simulate the tracking and deployment process.
# Based on the process described in ASTM F3320-18, folded balloons were pushed through a 37° C. heated anatomical model filled with PBS for 30 seconds. At the end of the track, balloons were then inflated to nominal pressure inside the hydrogel for 1 minute. The PBS inside the track was collected and replaced, and the balloon withdrawn back through the track. The PBS in the track was collected, and the coated balloon was inflated to nominal pressure for a final drug release in methanol for 5 minutes. The drug concentration in the two PBS samples and methanol sample was measured by UV-VIS. This was used to calculate the drug dose delivered to the hydrogel site.
# In this example, the drug release profiles of balloons dip coated with methanol solutions containing 20% excipient Pluronic F108 and 8% of either dipyridamole or sirolimus were assessed. After coating, the balloons were dried and folded.
# In this example, balloons were spray coated with a methanol solution containing 1% excipient Pluronic F108, and 2% of either dipyridamole or sirolimus. After drying and folding the balloons were sterilised.
# [2] = Drug release profile of spray-coated balloons, PBS then methanol elution, UV (Example 4); format: physicochemical
# Method: The technique of spray coating was introduced using a 5% solution of high molecular weight polymer PEG-PPO-PEG (Mn=14,600) in methanol. This spray coating method was used to add multiple layers of coating and ensured the correct area of the balloon was coated in a more precise fashion.
# In this example, a set of experiments was conducted to assess the drug release profiles of Sirolimus and Dipyridamole. The samples were spray coated with their coating solutions with nitrogen gas at 1 bar, and 20 rotations were done (10 clockwise and 10 anticlockwise). The separation from the balloon and spray nozzle was approximately 15 cm.
# The drug release profiles of both Dipyridamole and Sirolimus were determined using an excipient polymer PEG-PPO-PEG (Mn=14,600) with organic carrier solvent methanol. The coating solution quantities can be found in Table 3.
# The resulting coated balloons were eluted in 8 mL of PBS for 3 minutes, before being eluted into 8 mL of methanol for 5 minutes, for full release of the coating.
smiles,measurement,setting,value
OCCN(CCO)c1nc(N2CCCCC2)c2nc(N(CCO)CCO)nc(N3CCCCC3)c2n1 [dipyridamole],drug lost when tracking to the site,"[1]; dip coated, 20% Pluronic F108 and 8% drug",considerably less dipyridamole than sirolimus was lost
same,loaded drug released during deployment to the hydrogel target site,"[1]; spray coated, 1% Pluronic F108 and 2% drug, sterilised",71.1%
same,Post-PBS reading @415 nm,"[2]; 8 mL PBS 3 minutes, spray coated, PEG-PPO-PEG Mn 14,600",0.042
same,Post-Methanol reading @415 nm,[2]; 8 mL methanol 5 minutes after PBS elution,0.087
same,drug released during elution time,"[2]; printed '5-minute elution time', from UV reading and calibration coefficient, PEG-PPO-PEG polymer",32.6%
